Assays:
[1] = tested on: sebaceous glands in the ears of male Syrian hamsters; settings: topical application, Malloy, V. L. et al. (1989); cited from earlier work
cells = settings: Abe, E. et al. (1981); cited from earlier work
interleukins = settings: Muller, K. et al. (1988); cited from earlier work
[2] = tested on: U937 human histiocytic leukemia cells; assay: antiproliferative effect in U937 human histiocytic leukemia cells relative to 1α,25(OH)2 D3; type: cell-based; settings: number greater than 1 = higher antiproliferative activity
Protocol: ^a This test determines the antiproliferative effect in U937 human
histiocytic leukemia cells of the compound relative to
1α,25(OH)2 D3. A number greater than 1 indicates a higher
antiproliferative activity of the compound in question when compared to
1α,25(OH)2 D3. The test was performed exactly as
described: L. Binderup and E. Bramm, Biochem. Pharmacol., 37, (1988)

calcium metabolism = assay: calciuric effect in rats relative to 1α,25(OH)2 D3 (calcium metabolism); type: in vivo; settings: number smaller than 1 = less change in calcium excretion
Description: ^b This test determines the calciuric effect in rats of the compound
relative to 1α,25(OH)2 D3. A number smaller than 1
indicates less change in calcium excretion of the compound in question
when compared to 1α,25(OH)2 D3. The test was, as above,
performed exactly as described: L. Binderup and E. Bramm, Biochem.

[3] = acid stability: approximate half life in conc. ^2 HCl/^2 H2 O in C^2 H3 CN determined by ^1 H NMR; type: physicochemical; settings: dcl/d2o in cd3cn; 10 μl conc. ^2 HCl/^2 H2 O in C^2 H3 CN (0.6 ml), 25° C., ^1 H NMR at 500 MHz
Protocol: | ^c In this test, the compound was treated with a mixture of 10 μl | conc. ^2 HCl/^2 H2 O in C^2 H3 CN (0.6 ml) at | 25° C. and the approximate half life was determined by ^1 H NM | at 500 MHz.

Row | Calcium metabolism (calciuric effect) (calcium metabolism) | half-life [3] | SMILES | size of sebaceous glands [1] | cell differentiation and proliferation (cells) | effects and/or production of interleukins (interleukins) | U937, inhib. of prolifer. [2]
1 | – | – | C=C1/C(=C\C=C2/CCC[C@]3(C)[C@@H]([C@H](C)CCCC(C)(C)O)CC[C@@H]23)C[C@@H](O)C[C@@H]1O [1,25(OH)2 D3, 1α,25-dihydroxy-vitamin D3] | reduces the size of sebaceous glands | able to stimulate the differentiation of cells and inhibit excessive cell proliferation | influences the effects and/or production of interleukins | –
2 | 0.005 | – | C=C1/C(=C\C=C2/CCC[C@]3(C)[C@@H]([C@H](C)/C=C/[C@@H](O)C4CC4)CC[C@@H]23)C[C@@H](O)C[C@@H]1O [Calcipotriol] | – | – | – | 1
3 | 0.2 | – | C=C1/C(=C\C=C2/CCC[C@]3(C)[C@@H]([C@H](C)/C=C/C#CC(O)(CC)CC)CC[C@@H]23)C[C@@H](O)C[C@@H]1O [Compound 101, 1(S),3(R)-Dihydroxy-20(R)-(5-ethyl-5-hydroxy-hept-1(E)-en-3-yn-1-yl)-9,10-seco-pregna-5(Z),7(E),10(19)-triene] | – | – | – | 89
4 | 0.015 | 15 to 30 min | C=C1/C(=C\C=C2/CCC[C@]3(C)[C@@H]([C@@H](C)/C=C/C#CC(O)(CC)CC)CC[C@@H]23)C[C@@H](O)C[C@@H]1O [Compound 102, 1(S),3(R)-Dihydroxy-20(S)-(5-ethyl-5-hydroxy-hept-1(E)-en-3-yn-1-yl)-9,10-seco-pregna-5(Z),7(E),10(19)-triene] | – | – | – | 1.1
5 | 0.4 | < 5 min | C=C1/C(=C\C=C2/CCC[C@]3(C)[C@@H]([C@H](C)/C=C/C=C/C(O)(CC)CC)CC[C@@H]23)C[C@@H](O)C[C@@H]1O [EB1089, 1(S),3(R)-Dihydroxy-20(R)-(5'-ethyl-5'-hydroxy-hepta-1' (E),3'(E)-dien-1'-yl)-9,10-secopregna-5(Z),7(E), 10(19)-triene] | – | – | – | 68

From patent US5716945A, “Vitamin D analogues” (Leo Pharmaceutical Products Ltd. A/S (L.o slashed.vens …, priority 1993, dated 1998)
